Reference: PMC10218257, “Ionic Levothyroxine Formulations: Synthesis, Bioavailability, and Cytotoxicity Studies” (International Journal of Molecular Sciences, 2023)
Read-outs that look alike come from different tables or passages of the source.

Columns and labels:
[1] = Solubility assays in water, PBS and serum; type: physicochemical
Description: All the assays were carried out in triplicate. The average and standard deviation were calculated for the three replicates.

[2] = Permeability assays, Franz-type diffusion cell; design: Kd (partition coefficient): unit not given beside the values
Description: In this context, a polyethersulphone (PES-U) membrane was selected for the determination of these two parameters. The diffusion coefficient is associated with the amount of API diffused with time. Therefore, the increase in the diffusion coefficient is proportional to the speed of the drug's diffusion through the membrane. Another aspect to consider is that the solubility of the drug is proportional to the driving force. […] The chosen membrane was polyethersulphone (PES-U) with 150 μm thickness and 0.45 μm pore size (Sartorius Stedim Biotech, Göttingen, Germany), which was placed between the two compartments and held with a stainless-steel clamp. The receptor compartment was filled with PBS solution, and air bubbles were removed. […] The determination of the API diffused was performed by HPLC. The assays were performed with three replicates. […] The cumulative mass of drug diffused to the receptor compartment was determined taking into consideration the replacement of aliquots with fresh medium and the dilution derived from the addition of fresh buffer. […] According to a derived solution of Fick's law of diffusion, it is possible to determine the diffusion coefficient, D, of the API through the membrane. […] Cf and Ci are the final and initial concentrations in the receptor compartment, and Ct is the concentration in the receptor compartment at time t.

[3] = Thermogravimetric analysis (TGA); type: physicochemical; conditions: 5 °C min^−1, argon
Description: Thermogravimetric analyses were performed over a temperature range from room temperature to 500 °C in a thermogravimetric analyzer from Setaram Labsys EVO (France) with a weighing precision of ±0.01%. Each run was conducted at a heating rate of 5 °C min^−1, under a highly pure argon atmosphere purged at 50 mL min^−1, with a mass sample between 8 and 10 mg.

L929 cells = assay: Cell viability assay (MTS, CellTiter 96); type: cell-based; conditions: 24 h exposure, 50 and 75 ppm
Description: The biological effect of compounds was evaluated on the L929 cell line (DSMZ—German Collection of Microorganisms and Cell Culture GmbH). […] Cells only incubated with complete media were used as negative control and DMSO was chosen […]. […] The amount of formazan product was measured in a microplate reader (VICTOR Nivo TM, PerkinElmer, Waltham, MA, USA) at 490 nm, as absorbance is directly proportional to the number of viable cells in culture. Cell viability was expressed as the percentage of cells exposed to extracts vs. controls. Statistical analysis was performed using GraphPad Prism 7.00 software. A two-way ANOVA test was performed as well as Tukey’s multiple comparison test.

[4] = PES-U membrane, 37 °C, 50 mg L^−1, 8-hour assay

Row | Molecule | Solubility in PBS 37 °C ([1]; PBS, 37 °C) [µg/mL] | Solubility in Serum 37 °C ([1]; serum, 37 °C) [µg/mL] | Solubility in Water 25 °C ([1]; water, 25 °C) [µg/mL] | Solubility in Water 37 °C ([1]; water, 37 °C) [µg/mL] | Kd (partition coefficient) [2] | Permeability [2] | ΔTons, onset shifted to lower temperatures vs neat [Na][T4] [3] | Diffusion [2, 4] | Permeability [2, 4] | Cell viability / cytotoxicity (L929 cells) | onset of the major weight decrease (degradation) [3] [°C]
1 | 1-(2-Hydroxyethyl)-3-Methylimidazolium Levothyroxine [[C2OHMiM][T4]] | 324 ± 4 | 321 ± 7 | 277 ± 34 | 379 ± 22 | 0.45 | 1.02 (×10^−5) cm s^−1 | ~ 30 °C |  |  |  | 
2 | NC(Cc1cc(I)c(Oc2cc(I)c(O)c(I)c2)c(I)c1)C(=O)[O-].[Na+] (centres unmarked) [[Na][T4], Levothyroxine sodium salt pentahydrate, reference compound] |  |  |  |  |  |  |  | 0.49 (×10^−6) cm^2 s^−1 | 2.04 (×10^−5) cm s^−1 | without losing their viability | 175
